Literature values as cited in patent publication US20090221538A1, “METHODS OF TREATING MULTIPLE SCLEROSIS BY ADMINISTERING PULSE DOSE CALCITRIOL” (priority 2008, published 2009).

Test system: MS
Conditions: daily calcitriol treatments, cited from earlier work

SMILES: C=C1/C(=C\C=C2/CCC[C@]3(C)[C@@H]([C@H](C)CCCC(C)(C)O)CC[C@@H]23)C[C@@H](O)C[C@@H]1O [1,25-(OH)2D3, 1,25-dihydroxy vitamin D3]
- MS progression: completely inhibited
- patients who withdrew from the trial with symptomatic hypercalcemia: 2 of the 15
- MS relapse rate (average) (decreased from 1.0/yr): 0.2 /yr
